Source: patent US20240285634A1, “COMPOUND AND METHOD FOR TREATING CHEMOTHERAPY-ASSOCIATED GASTROINTESTINAL SIDE EFFECTS” (ONQUALITY PHARMACEUTICALS CHINA LTD., priority 2021, published 2024)

Test system: Chemotherapeutic agent-caused constipation models of Balb/c mice
Experiment: Relieving effect on constipation caused by a chemotherapeutic agent (Examples 202-364)
Format: in vivo
From the text: Construction of mouse animal models: Chemotherapeutic agent-caused constipation models of Balb/c mice were constructed according to the administration mode and frequency of the chemotherapeutic agent as shown in Table 4. […] Thus, chemotherapeutic agent-caused constipation models of mice are very good models to mimic constipation caused by the chemotherapeutic agent.
Balb/c mice were fed for 1 week, and then divided into groups. The experiment was divided into a control group, a chemotherapeutic agent group, and a group of the compound as shown in Formula I, each of which comprised 10 mice, to perform the administration experiment, for which the administration dosage, mode, time and frequency were shown in Table 4. The control group: being injected or intragastrically administered with the same solvent as that used in the group of the compound as shown in Formula I (the administration mode and time were shown in Table 4), and then being injected or intragastrically administered with the same solvent as that used in the chemotherapeutic agent group (the administration mode was shown in Table 4); the chemotherapeutic agent group: being injected or intragastrically administered with the same solvent as that used in the group of the compound as shown in Formula I (the administration mode and time was shown in Table 4), and then being injected or intragastrically administered with the chemotherapeutic agent (the type, administration mode and dosage were shown in Table 4); the group of the compound as shown in Formula I: being injected or intragastrically administered with the compound as shown in Formula I (the administration mode and time was shown in Table 4), and then being administered with the chemotherapeutic agent (the administration mode and dosage were shown in Table 4).
The feces reduction rate was calculated with reference to the method of Ji Eun Kim (Lab Anim Res. 2016 December; 32(4): 231-240.). Feces reduction rate (%)=(the control group−the chemotherapeutic agent group or the group of the compound as shown in Formula I)/the control group*100%
It is regarded as effective remission when the feces reduction rate of mice in the group of the compound as shown in Formula I is reduced compared with that in the chemotherapeutic agent group.
The feces amount of mice within 3 hours was observed and recorded every day. At the end of the experiment, the number of mice in the group of the compound as shown in Formula I whose feces reduction rate was lower than that of mice in the chemotherapeutic agent group was recorded. Table 4 lists various animal experiment combinations of chemotherapeutic agents and the compound as shown in Formula I, as well as the corresponding experimental results.

CN1CCN(c2ccc(Nc3ncc4cc5n(c4n3)C3(CCCCC3)CNC5=O)nc2)CC1 [Compound I, Trilaciclib]
Relative remission rate (%) (Example 303, Irinotecan (CPT-11) intraperitoneal injection 260 mg/kg single, compound intravenous injection 150 mg/kg single, 22 h before chemotherapeutic agent, cycle 8 days): 40%
Relative remission rate (%) (Example 304, Irinotecan (CPT-11) intraperitoneal injection 260 mg/kg single, compound intravenous injection 150 mg/kg single, 24 h before chemotherapeutic agent, cycle 8 days): 40%
Relative remission rate (%) (Example 305, Irinotecan (CPT-11) intraperitoneal injection 260 mg/kg single, compound intravenous injection 150 mg/kg single, 48 h before chemotherapeutic agent, cycle 8 days): 0%
Relative remission rate (%) (Example 306, Irinotecan (CPT-11) oral administration 300 mg/kg single, compound intraperitoneal injection 100 mg/kg single, 24 h before chemotherapeutic agent, cycle 10 days): 60%
Relative remission rate (%) (Example 307, Irinotecan (CPT-11) intramuscular injection 260 mg/kg single, compound intramuscular injection 100 mg/kg single, 1 h before chemotherapeutic agent, cycle 7 days): 60%
Relative remission rate (%) (Example 308, Irinotecan (CPT-11) intravenous injection 260 mg/kg single, compound oral administration 100 mg/kg single, 12 h before chemotherapeutic agent, cycle 7 days): 50%
Relative remission rate (%) (Example 309, Fluorouracil 125 (F) and irinotecan 240 (I) mg/kg intravenous injection single, compound intravenous injection 100 mg/kg single, 0.5 h before chemotherapeutic agent, cycle 10 days): 40%
Relative remission rate (%) (Example 310, Fluorouracil 125 (F) and irinotecan 240 (I) mg/kg intravenous injection single, compound intravenous injection 100 mg/kg single, 4 h before chemotherapeutic agent, cycle 10 days): 60%
Relative remission rate (%) (Example 311, Fluorouracil 125 (F) and irinotecan 240 (I) mg/kg intravenous injection single, compound intravenous injection 100 mg/kg single, 8 h before chemotherapeutic agent, cycle 10 days): 60%
Relative remission rate (%) (Example 312, Fluorouracil 125 (F) and irinotecan 240 (I) mg/kg intravenous injection single, compound intravenous injection 100 mg/kg single, 12 h before chemotherapeutic agent, cycle 10 days): 70%
Relative remission rate (%) (Example 313, Fluorouracil 125 (F) and irinotecan 240 (I) mg/kg intravenous injection single, compound intravenous injection 100 mg/kg single, 24 h before chemotherapeutic agent, cycle 10 days): 50%
Relative remission rate (%) (Example 314, Fluorouracil 125 (F) and irinotecan 240 (I) mg/kg intravenous injection single, compound intravenous injection 100 mg/kg single, 48 h before chemotherapeutic agent, cycle 10 days): 0%
Relative remission rate (%) (Example 318, Fluorouracil 125 (F) and irinotecan 240 (I) mg/kg intraperitoneal injection single, compound intraperitoneal injection 100 mg/kg single, 1 h before chemotherapeutic agent, cycle 7 days): 40%
Relative remission rate (%) (Example 319, Fluorouracil 125 (F) and irinotecan 240 (I) mg/kg intraperitoneal injection single, compound intraperitoneal injection 100 mg/kg single, 12 h before chemotherapeutic agent, cycle 7 days): 50%
Relative remission rate (%) (Example 322, Fluorouracil 100 (F) and oxaliplatin 5 (O) and irinotecan 100 (I) mg/kg intraperitoneal injection single, compound intraperitoneal injection 300 mg/kg single, 0.5 h before chemotherapeutic agent, cycle 8 days): 30%
Relative remission rate (%) (Example 323, Fluorouracil 100 (F) and oxaliplatin 5 (O) and irinotecan 100 (I) mg/kg intraperitoneal injection single, compound intraperitoneal injection 300 mg/kg single, 4 h before chemotherapeutic agent, cycle 8 days): 30%
Relative remission rate (%) (Example 324, Fluorouracil 100 (F) and oxaliplatin 5 (O) and irinotecan 100 (I) mg/kg intraperitoneal injection single, compound intraperitoneal injection 300 mg/kg single, 8 h before chemotherapeutic agent, cycle 8 days): 60%
Relative remission rate (%) (Example 325, Fluorouracil 100 (F) and oxaliplatin 5 (O) and irinotecan 100 (I) mg/kg intraperitoneal injection single, compound intraperitoneal injection 300 mg/kg single, 12 h before chemotherapeutic agent, cycle 8 days): 50%
Relative remission rate (%) (Example 326, Fluorouracil 100 (F) and oxaliplatin 5 (O) and irinotecan 100 (I) mg/kg intraperitoneal injection single, compound intraperitoneal injection 300 mg/kg single, 24 h before chemotherapeutic agent, cycle 8 days): 40%
Relative remission rate (%) (Example 327, Fluorouracil 100 (F) and oxaliplatin 5 (O) and irinotecan 100 (I) mg/kg intraperitoneal injection single, compound intraperitoneal injection 300 mg/kg single, 48 h before chemotherapeutic agent, cycle 8 days): 0%
Relative remission rate (%) (Example 328, Fluorouracil 100 (F), oxaliplatin 5 (O), irinotecan 100 (I) and tetrahydrofolic acid 100 (L) mg/kg intravenous injection single, compound intravenous injection 100 mg/kg single, 0.5 h before chemotherapeutic agent, cycle 8 days): 20%
Relative remission rate (%) (Example 329, Fluorouracil 100 (F), oxaliplatin 5 (O), irinotecan 100 (I) and tetrahydrofolic acid 100 (L) mg/kg intravenous injection single, compound intravenous injection 100 mg/kg single, 1 h before chemotherapeutic agent, cycle 8 days): 30%
Relative remission rate (%) (Example 330, Fluorouracil 100 (F), oxaliplatin 5 (O), irinotecan 100 (I) and tetrahydrofolic acid 100 (L) mg/kg intravenous injection single, compound intravenous injection 100 mg/kg single, 2 h before chemotherapeutic agent, cycle 8 days): 30%
Relative remission rate (%) (Example 331, Fluorouracil 100 (F), oxaliplatin 5 (O), irinotecan 100 (I) and tetrahydrofolic acid 100 (L) mg/kg intravenous injection single, compound intravenous injection 100 mg/kg single, 3 h before chemotherapeutic agent, cycle 8 days): 50%
Relative remission rate (%) (Example 332, Fluorouracil 100 (F), oxaliplatin 5 (O), irinotecan 100 (I) and tetrahydrofolic acid 100 (L) mg/kg intravenous injection single, compound intravenous injection 100 mg/kg single, 4 h before chemotherapeutic agent, cycle 8 days): 50%
Relative remission rate (%) (Example 333, Fluorouracil 100 (F), oxaliplatin 5 (O), irinotecan 100 (I) and tetrahydrofolic acid 100 (L) mg/kg intravenous injection single, compound intravenous injection 100 mg/kg single, 6 h before chemotherapeutic agent, cycle 8 days): 40%
Relative remission rate (%) (Example 334, Fluorouracil 100 (F), oxaliplatin 5 (O), irinotecan 100 (I) and tetrahydrofolic acid 100 (L) mg/kg intravenous injection single, compound intravenous injection 100 mg/kg single, 8 h before chemotherapeutic agent, cycle 8 days): 60%
